Results on 24 compounds are retold here after patent publication US20230373985A1 (Origenis Gmbh, priority 2020, published 2023).

Structures are written as SMILES. Bounds are passed on as bounds.

In assay [1] the target is T1, wt human TYK2, catalytic site (Homo sapiens, UniProt P29597).
T1 construct: wt human TYK2, catalytic site; purchased SignalChem
T1 sequence (P29597 897-1176 limits assumed): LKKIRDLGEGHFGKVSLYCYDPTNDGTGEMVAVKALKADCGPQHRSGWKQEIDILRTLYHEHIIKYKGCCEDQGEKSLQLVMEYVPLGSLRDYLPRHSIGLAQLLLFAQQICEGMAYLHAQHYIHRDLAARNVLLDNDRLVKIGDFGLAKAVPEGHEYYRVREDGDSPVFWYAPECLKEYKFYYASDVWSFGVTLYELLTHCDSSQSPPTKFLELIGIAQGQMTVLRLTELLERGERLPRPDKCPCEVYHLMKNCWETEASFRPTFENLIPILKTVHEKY
The assay is described as follows: HTRF KinEASE assay, TYK2. The class given is biochemical. The note with it: 1 μM ATP; read-out: IC50, Activity Toward TYK2. Summed up: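 HTRF KinEASE-TK readout with 1 μM biotinylated TK substrate in 1× kinase buffer, ≥30 min at room temperature, then antibody/streptavidin-XL665 detection for 60 min. TYK2 at 2 nM with 1 μM ATP; JAK2 at 1 nM with 100 μM ATP. Analysis uses emission ratios.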
For orientation: In TR-FRET formats the signal depends on donor and acceptor labels being close together.

Assay [2] deals with T2, wt human JAK1, catalytic site (Homo sapiens, UniProt P23458).
T2 construct: wt human JAK1, catalytic site; purchased ThermoFisher
Nature of the assay: HTRF KinEASE assay, JAK1. The class given is biochemical. The note with it: 2.5 μM ATP; read-out: IC50, Activity Toward JAK1. The method, then: Basic protocol for HTRF KinEASE assay (Cisbio/FRA) inhibitor studies involved two steps: • Enzymatic step: Addition of 4 μL of test compound in corresponding DMSO dilutions, 4 μL of kinase/substrate mixture, 2 μL of ATP into 384 well small volume plates. Incubation for at least 30 minutes at room temperature. • Detection step: Addition of 5 μL antibody and 5 μL streptavidin-XL665, read plate after 60 minutes. Data analysis of emission ratios according KinEASE assay protocol.
(§1) Kinase and assay components were adjusted to final concentrations according to kit protocol. For TYK2: 2 nM wt human TYK2, catalytic site (SignalChem/CAN), 1 μM HTRF KinEASE-TK Substrate-biotin, 1 μM ATP in 1× Kinase Buffer. […] For JAK2: 1 nM wt human JAK2, catalytic site (SignalChem/CAN), 1 μM HTRF KinEASE-TK Substrate-biotin, 100 μM ATP in 1× Kinase Buffer.
as §1

T2 sequence (P23458 875-1153 limits assumed): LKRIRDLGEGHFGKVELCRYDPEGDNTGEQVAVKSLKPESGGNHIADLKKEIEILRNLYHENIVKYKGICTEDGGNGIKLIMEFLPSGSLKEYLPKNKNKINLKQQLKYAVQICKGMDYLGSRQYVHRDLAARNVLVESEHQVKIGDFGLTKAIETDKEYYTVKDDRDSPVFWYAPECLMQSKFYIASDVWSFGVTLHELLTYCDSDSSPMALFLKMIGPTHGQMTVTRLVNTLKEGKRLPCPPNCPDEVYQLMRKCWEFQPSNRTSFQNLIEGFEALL

With `NC(=O)c1nn(-c2c(Cl)cccc2Cl)nc1Nc1ccc(C(=O)N2CCOCC2)cn1` [compound 140, 2-(2,6-dichlorophenyl)-5-((5-(morpholine-4-carbonyl)pyridin-2-yl)amino)-2H-1,2,3-triazole-4-carboxamide], the values for the half-maximal inhibitory concentration (IC50) in assay [1] and in assay [2] were 10 to 100 nM and 100 to 1000 nM, respectively.

With `Cc1cnnn1-c1ccc(Nc2nn(-c3c(Cl)cccc3Cl)nc2C(N)=O)nc1` [compound 141, 2-(2,6-dichlorophenyl)-5-((5-(5-methyl-1H-1,2,3-triazol-1-yl)pyridin-2-yl)amino)-2H-1,2,3-triazole-4-carboxamide], the IC50 in assay [1] and in assay [2] was 10 to 100 nM in each case.

Turning to `CCn1ncnc1-c1ccc(Nc2nn(-c3c(Cl)cccc3Cl)nc2C(N)=O)nc1` [compound 142, 2-(2,6-dichlorophenyl)-5-((5-(1-ethyl-1H-1,2,4-triazol-5-yl)pyridin-2-yl)amino)-2H-1,2,3-triazole-4-carboxamide], the IC50 (in general, the concentration at which inhibition is half-maximal) in assay [1] was 100 to 1000 nM; in assay [2], 10 to 100 nM.

For the compound `NC(=O)c1nn(-c2c(Cl)cccc2Cl)nc1Nc1ccc(N2CCOCC2)cn1` [compound 143, 2-(2,6-dichlorophenyl)-5-((5-morpholinopyridin-2-yl)amino)-2H-1,2,3-triazole-4-carboxamide], the IC50 in assay [1] and in assay [2] was 100 to 1000 nM throughout.

Regarding `Cn1cc(C(F)(F)F)nc1-c1ccc(Nc2nn(-c3c(Cl)cccc3Cl)nc2C(N)=O)nc1` [compound 144, 2-(2,6-dichlorophenyl)-5-((5-(1-methyl-4-(trifluoromethyl)-1H-imidazol-2-yl)pyridin-2-yl)amino)-2H-1,2,3-triazole-4-carboxamide], the 50% inhibitory concentration (IC50) in assay [1] and in assay [2] was 10 to 100 nM each time.

For `NC(=O)c1nn(-c2c(Cl)cc(F)cc2Cl)nc1Nc1ccc(C(=O)N2CC[C@@H](F)C2)cc1` [compound 146, (R)-2-(2,6-dichloro-4-fluorophenyl)-5-((4-(3-fluoropyrrolidine-1-carbonyl)phenyl)amino)-2H-1,2,3-triazole-4-carboxamide], the figures for the IC50 in assay [1] and in assay [2] were 10 to 100 nM and under 10 nM, respectively.

In the case of `CN(C)C1CCN(C(=O)c2ccc(Nc3nn(-c4c(Cl)cccc4Cl)nc3C(N)=O)nc2)CC1` [compound 149, 2-(2,6-dichlorophenyl)-5-((5-(4-(dimethylamino)piperidine-1-carbonyl)pyridin-2-yl)amino)-2H-1,2,3-triazole-4-carboxamide], the IC50 in assay [1] is 10 to 100 nM; in assay [2], under 10 nM.

For `CN1CCCN(C(=O)c2ccc(Nc3nn(-c4c(Cl)cccc4Cl)nc3C(N)=O)nc2)CC1` [compound 150, 2-(2,6-dichlorophenyl)-5-((5-(4-methyl-1,4-diazepane-1-carbonyl)pyridin-2-yl)amino)-2H-1,2,3-triazole-4-carboxamide], the IC50 in assay [1] and in assay [2] was 10 to 100 nM each time.

With `NC(=O)c1nn(-c2c(Cl)cccc2Cl)nc1Nc1ccc(CC(=O)N2CCOCC2)nc1` [compound 151, 2-(2,6-dichlorophenyl)-5-((6-(2-morpholino-2-oxoethyl)pyridin-3-yl)amino)-2H-1,2,3-triazole-4-carboxamide], the IC50 in assay [1] fell in the range of 100 to 1000 nM; in assay [2], 10 to 100 nM.

Take `NC(=O)c1nn(-c2c(Cl)cccc2Cl)nc1Nc1ccc(CC(=O)N2CC(F)C2)nc1` [compound 152, 2-(2,6-dichlorophenyl)-5-((6-(2-(3-fluoroazetidin-1-yl)-2-oxoethyl)pyridin-3-yl)amino)-2H-1,2,3-triazole-4-carboxamide]: the results for the half-inhibitory concentration (IC50) in assay [1] and in assay [2] were 100 to 1000 nM and 10 to 100 nM, respectively.

Consider `N#CC1CN(C(=O)c2ccc(Nc3nn(-c4c(Cl)cccc4Cl)nc3C(N)=O)nc2)C1` [compound 153, 5-((5-(3-cyanoazetidine-1-carbonyl)pyridin-2-yl)amino)-2-(2,6-dichlorophenyl)-2H-1,2,3-triazole-4-carboxamide], for which the IC50 in assay [1] and in assay [2] was 10 to 100 nM in each case.

For `NC(=O)c1nn(-c2c(Cl)cccc2Cl)nc1Nc1ccc(C(=O)N2CC(O)C2)cn1` [compound 154, 2-(2,6-dichlorophenyl)-5-((5-(3-hydroxyazetidine-1-carbonyl)pyridin-2-yl)amino)-2H-1,2,3-triazole-4-carboxamide], the half-inhibitory concentration (IC50) in assay [1] and in assay [2] was 10 to 100 nM each time.

For the compound `Cc1ncnn1-c1ccc(Nc2nn(-c3c(Cl)cccc3Cl)nc2C(N)=O)nc1` [compound 156, 2-(2,6-dichlorophenyl)-5-((5-(5-methyl-1H-1,2,4-triazol-1-yl)pyridin-2-yl)amino)-2H-1,2,3-triazole-4-carboxamide], the half-inhibitory concentration (IC50) in assay [1] and in assay [2] was 10 to 100 nM in each case.

For the compound `NC(=O)c1nn(-c2c(Cl)cccc2Cl)nc1Nc1ccc(-n2nncc2C(F)(F)F)cn1` [compound 157, 2-(2,6-dichlorophenyl)-5-((5-(5-(trifluoromethyl)-1H-1,2,3-triazol-1-yl)pyridin-2-yl)amino)-2H-1,2,3-triazole-4-carboxamide], the half-maximal inhibitory concentration (IC50) lay within 100 to 1000 nM in assay [1] and 10 to 100 nM in assay [2].

Take `Cn1nnnc1-c1ccc(Nc2nn(-c3c(Cl)cccc3Cl)nc2C(N)=O)nc1` [compound 158, 2-(2,6-dichlorophenyl)-5-((5-(1-methyl-1H-tetrazol-5-yl)pyridin-2-yl)amino)-2H-1,2,3-triazole-4-carboxamide]: the IC50 in assay [1] and in assay [2] was 10 to 100 nM each time.

`NC(=O)c1nn(-c2c(Cl)cccc2Cl)nc1Nc1ccc(C(=O)N2CCS(=O)(=O)CC2)cn1` [compound 160, 2-(2,6-dichlorophenyl)-5-((5-(1,1-dioxidothiomorpholine-4-carbonyl)pyridin-2-yl)amino)-2H-1,2,3-triazole-4-carboxamide]: the figures for the IC50 in assay [1] and in assay [2] were under 10 nM and 10 to 100 nM, respectively.

`Cc1cncc2nnc(-c3ccc(Nc4nn(-c5c(Cl)cccc5Cl)nc4C(N)=O)cn3)n12` [compound 161, 2-(2,6-dichlorophenyl)-5-((6-(5-methyl-[1,2,4]triazolo[4,3-a]pyrazin-3-yl)pyridin-3-yl)amino)-2H-1,2,3-triazole-4-carboxamide]: the IC50 in assay [1] and in assay [2] was 10 to 100 nM each time.

For `CC1(C)CN(C(=O)c2ccc(Nc3nn(-c4c(Cl)cccc4Cl)nc3C(N)=O)nc2)C1` [compound 165, 2-(2,6-dichlorophenyl)-5-((5-(3,3-dimethylazetidine-1-carbonyl)pyridin-2-yl)amino)-2H-1,2,3-triazole-4-carboxamide], the IC50 in assay [1] was 10 to 100 nM; in assay [2], 100 to 1000 nM.

On to `CC1(C)CN(C(=O)c2ccc(Nc3nn(-c4c(Cl)cccc4Cl)nc3C(N)=O)cc2)C1` [compound 166, 2-(2,6-dichlorophenyl)-5-((4-(3,3-dimethylazetidine-1-carbonyl)phenyl)amino)-2H-1,2,3-triazole-4-carboxamide], for which the IC50 is 10 to 100 nM in assay [1] and under 10 nM in assay [2].

Consider `NC(=O)c1nn(-c2c(Cl)cccc2Cl)nc1Nc1cnn(CC(=O)N2CCOCC2)c1` [compound 168, 2-(2,6-dichlorophenyl)-5-((1-(2-morpholino-2-oxoethyl)-1H-pyrazol-4-yl)amino)-2H-1,2,3-triazole-4-carboxamide], for which the IC50 in assay [1] and in assay [2] was 10 to 100 nM throughout.

`NC(=O)c1nn(-c2c(Cl)cccc2Cl)nc1Nc1ccc(C(=O)N2CCSCC2)cc1` [compound 170, 2-(2,6-dichlorophenyl)-5-((4-(thiomorpholine-4-carbonyl)phenyl)amino)-2H-1,2,3-triazole-4-carboxamide]: the half-inhibitory concentration (IC50) in assay [1] and in assay [2] was under 10 nM in each case.

As to `NC(=O)c1nn(-c2c(Cl)cccc2Cl)nc1Nc1cnn(CC(=O)N2CCS(=O)(=O)CC2)c1` [compound 174, 2-(2,6-dichlorophenyl)-5-((1-(2-(1,1-dioxidothiomorpholino)-2-oxoethyl)-1H-pyrazol-4-yl)amino)-2H-1,2,3-triazole-4-carboxamide], the IC50 in assay [1] is 10 to 100 nM; in assay [2], under 10 nM.

For `NC(=O)c1nn(-c2c(Cl)cc(F)cc2Cl)nc1Nc1ccc(C(=O)N2CCS(=O)(=O)CC2)cc1` [compound 175, 2-(2,6-dichloro-4-fluorophenyl)-5-((4-(1,1-dioxidothiomorpholine-4-carbonyl)phenyl)amino)-2H-1,2,3-triazole-4-carboxamide], the half-inhibitory concentration (IC50) in assay [1] and in assay [2] was under 10 nM throughout.

In the case of `COc1cc(Cl)c(-n2nc(Nc3ccc(C(=O)N4CCSCC4)cc3)c(C(N)=O)n2)c(Cl)c1` [compound 176, 2-(2,6-dichloro-4-methoxyphenyl)-5-((4-(thiomorpholine-4-carbonyl)phenyl)amino)-2H-1,2,3-triazole-4-carboxamide], the values for the half-maximal inhibitory concentration (IC50) in assay [1] and in assay [2] were 100 to 1000 nM and 10 to 100 nM, respectively.
